This note sets out measurements from US20240218022A1, “ANTI-VISTA MACROCYCLIC PEPTIDES AND COMPOSITIONS” (BRISTOL-MYERS SQUIBB COMPANY, priority 2022, published 2024).

Positions of bridges follow the written chain, without caps; N, C: chain ends. Non-standard residues stand in square brackets, D forms with d. Residues, ends and D or L forms follow the SMILES beside them. 2Nal = N[C@@H](Cc1ccc2ccccc2c1)C(=O)O; Ahp(2) = CCCCC[C@H](N)C(=O)O; NHexGly = CCCCCCNCC(=O)O; Nle = CCCC[C@H](N)C(=O)O; Orn = NCCC[C@H](N)C(=O)O; Dab = NCC[C@H](N)C(=O)O; Nva = CCC[C@H](N)C(=O)O; Dap = NC[C@H](N)C(=O)O

The target of the assay is T1, mouse VISTA (mVISTA) (Mus musculus, UniProt Q9D659).
T1 construct: expressed in transfected cells; host or cells: Human embryonic kidney 293T cells
T1 sequence (Q9D659 33-308): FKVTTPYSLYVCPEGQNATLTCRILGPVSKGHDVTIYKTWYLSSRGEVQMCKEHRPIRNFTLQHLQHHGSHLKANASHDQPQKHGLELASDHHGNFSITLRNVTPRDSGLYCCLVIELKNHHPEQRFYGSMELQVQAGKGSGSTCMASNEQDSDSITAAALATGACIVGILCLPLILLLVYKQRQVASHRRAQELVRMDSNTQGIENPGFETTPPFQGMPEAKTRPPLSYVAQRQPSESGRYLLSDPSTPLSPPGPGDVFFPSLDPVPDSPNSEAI
Put plainly: Cell-Based Binding High-Content Assay For mVISTA (HC CBA mVISTA). Conditions: 293T cells expressing mouse VISTA; competition with biotinylated peptide (2 nM); read-out: HC CBA mVISTA IC50. The gist of the method:
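293T cells expressing mouse VISTA, with compounds added either after seeding ("no wash") or before seeding and then washed out after 1 h. Biotinylated peptide 2 nM for 30 min at room temperature, then detection with Alexa 647–streptavidin. After fixation with Hoechst stain, plates were high-content imaged; IC50 from four-parameter logistic fit.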

As usually defined, the IC50 is the midpoint of a concentration-inhibition curve.

Take `CCCCCCN1CC(=O)N[C@@H](Cc2ccc(O)cc2)C(=O)N[C@@H](CC(C)C)C(=O)NCC(=O)N[C@@H](CCCNC(=N)N)C(=O)N[C@@H](Cc2ccc(O)cc2)C(=O)N[C@@H](CCCCC)C(=O)N2CCC[C@H]2C(=O)N[C@@H](C(C)C)C(=O)N[C@@H](CO)C(=O)N[C@H](C(=O)NCC(=O)O)CSCC(=O)N[C@@H](Cc2ccccc2)C(=O)N[C@@H](Cc2ccc(O)cc2)C(=O)N[C@@H](CC(=O)O)C1=O` [Example 1095] ({CH2CO}-FYD[NHexGly]YLGRY[Ahp(2)]PVSCG-OH; thioether N-14): the IC50 came out at 17.4 nM. With `CCCCCCN1CC(=O)N[C@@H](Cc2ccc(O)cc2)C(=O)N[C@@H](CC(C)C)C(=O)NCC(=O)N[C@@H](CCCNC(=N)N)C(=O)N[C@@H](Cc2ccc(O)cc2)C(=O)N[C@@H](CCCCC)C(=O)N2CCC[C@H]2C(=O)N[C@@H](C(C)C)C(=O)N[C@@H](CC(=O)O)C(=O)N[C@H](C(=O)NCC(N)=O)CSCC(=O)N[C@@H](Cc2ccccc2)C(=O)N[C@@H](Cc2ccc(O)cc2)C(=O)N[C@@H](CC(=O)O)C1=O` [Example 1096] ({CH2CO}-FYD[NHexGly]YLGRY[Ahp(2)]PVDCG-NH2; thioether N-14) the figure was 15.5 nM; with `CCCCCCN1CC(=O)N[C@@H](Cc2ccc(O)cc2)C(=O)N[C@@H](CC(C)C)C(=O)NCC(=O)N[C@@H](CCCNC(=N)N)C(=O)N[C@@H](Cc2ccc(O)cc2)C(=O)N[C@@H](CCCCC)C(=O)N2CCC[C@H]2C(=O)N[C@@H](C(C)C)C(=O)N[C@@H](C(C)C)C(=O)N[C@H](C(=O)NCC(=O)O)CSCC(=O)N[C@@H](Cc2ccccc2)C(=O)N[C@@H](Cc2ccc(O)cc2)C(=O)N[C@@H](CC(=O)O)C1=O` [Example 1097] ({CH2CO}-FYD[NHexGly]YLGRY[Ahp(2)]PVVCG-OH; thioether N-14), 18 nM.

On to `CCCCCCN1CC(=O)N[C@@H](Cc2ccc(O)cc2)C(=O)N[C@@H](CCCCC)C(=O)N[C@@H](CC(N)=O)C(=O)N[C@@H](CCCNC(=N)N)C(=O)N[C@@H](Cc2c[nH]c3ccccc23)C(=O)N[C@@H](CCCCC)C(=O)N2CCC[C@H]2C(=O)N[C@@H](C(C)C)C(=O)N[C@@H](CO)C(=O)N[C@H](C(=O)NCC(=O)O)CSCC(=O)N[C@@H](Cc2ccccc2)C(=O)N[C@@H](Cc2ccc(O)cc2)C(=O)N[C@@H](CC(=O)O)C1=O` [Example 1098] ({CH2CO}-FYD[NHexGly]Y[Ahp(2)]NRW[Ahp(2)]PVSCG-OH; thioether N-14), for which the half-maximal inhibitory concentration (IC50) stood at 14.7 nM. With `CCCCCCN1CC(=O)N[C@@H](Cc2ccc(O)cc2)C(=O)N[C@@H](CCCC)C(=O)NCC(=O)N[C@@H](CCCNC(=N)N)C(=O)N[C@@H](CC(C)C)C(=O)N[C@@H](CCCCC)C(=O)N2CCC[C@H]2C(=O)N[C@@H](C(C)C)C(=O)N2CCC[C@H]2C(=O)N[C@H](C(=O)NCC(=O)O)CSCC(=O)N[C@@H](Cc2ccccc2)C(=O)N[C@@H](Cc2ccc(O)cc2)C(=O)N[C@@H](CC(=O)O)C1=O` [Example 1099] ({CH2CO}-FYD[NHexGly]Y[Nle]GRL[Ahp(2)]PVPCG-OH; thioether N-14) the figure was 21.6 nM. In the case of `CCCCCCN1CC(=O)N[C@@H](Cc2ccc(O)cc2)C(=O)N[C@@H](CCCCC)C(=O)NCC(=O)N[C@@H](CCCNC(=N)N)C(=O)N[C@@H](CC(C)C)C(=O)N[C@@H](CCCCC)C(=O)N2CCC[C@H]2C(=O)N[C@@H](C(C)C)C(=O)N2CCC[C@H]2C(=O)N[C@H](C(=O)NCC(N)=O)CSCC(=O)N[C@@H](Cc2ccccc2)C(=O)N[C@@H](Cc2ccc(O)cc2)C(=O)N[C@@H](CC(=O)O)C1=O` [Example 1100] ({CH2CO}-FYD[NHexGly]Y[Ahp(2)]GRL[Ahp(2)]PVPCG-NH2; thioether N-14), the half-maximal inhibitory concentration (IC50) is 17.6 nM.

For `CCCCCCN1CC(=O)N[C@@H](Cc2ccc(O)cc2)C(=O)N[C@@H](CCC)C(=O)NCC(=O)N[C@@H](CCCNC(=N)N)C(=O)N[C@@H](CC(C)C)C(=O)N[C@@H](CCCCC)C(=O)N2CCC[C@H]2C(=O)N[C@@H](C(C)C)C(=O)N2CCC[C@H]2C(=O)N[C@H](C(=O)NCC(N)=O)CSCC(=O)N[C@@H](Cc2ccccc2)C(=O)N[C@@H](Cc2ccc(O)cc2)C(=O)N[C@@H](CC(=O)O)C1=O` [Example 1102] ({CH2CO}-FYD[NHexGly]Y[Nva]GRL[Ahp(2)]PVPCG-NH2; thioether N-14), the IC50 was 25.7 nM. With `CCCCCCN1CC(=O)N[C@@H](Cc2ccc(O)cc2)C(=O)N[C@@H](C(C)C)C(=O)NCC(=O)N[C@@H](CCCNC(=N)N)C(=O)N[C@@H](CC(C)C)C(=O)N[C@@H](CCCCC)C(=O)N2CCC[C@H]2C(=O)N[C@@H](C(C)C)C(=O)N2CCC[C@H]2C(=O)N[C@H](C(=O)NCC(=O)O)CSCC(=O)N[C@@H](Cc2ccccc2)C(=O)N[C@@H](Cc2ccc(O)cc2)C(=O)N[C@@H](CC(=O)O)C1=O` [Example 1109] ({CH2CO}-FYD[NHexGly]YVGRL[Ahp(2)]PVPCG-OH; thioether N-14) the figure was 39.1 nM. Turning to `CCCCCCN1CC(=O)N[C@@H](Cc2ccc(O)cc2)C(=O)N[C@@H](C(C)C)C(=O)NCC(=O)N[C@@H](CCCNC(=N)N)C(=O)N[C@@H](CC(C)C)C(=O)N[C@@H](CCCCC)C(=O)N2CCC[C@H]2C(=O)N[C@@H](C(C)C)C(=O)N[C@@H](CC(=O)O)C(=O)N[C@H](C(=O)N[C@@H](CO)C(=O)N[C@@H](CCCN)C(=O)N[C@@H](CC(N)=O)C(=O)O)CSCC(=O)N[C@@H](Cc2ccc3ccccc3c2)C(=O)N[C@@H](Cc2ccc(O)cc2)C(=O)N[C@@H](CC(=O)O)C1=O` [Example 1159] ({CH2CO}-[2Nal]YD[NHexGly]YVGRL[Ahp(2)]PVDCS[Orn]N-OH; thioether N-14), the 50% inhibitory concentration (IC50) worked out at 17.2 nM. As for `CCCCCCN1CC(=O)N[C@@H](Cc2ccc(O)cc2)C(=O)N[C@@H](C(C)C)C(=O)NCC(=O)N[C@@H](CCCNC(=N)N)C(=O)N[C@@H](CC(C)C)C(=O)N[C@@H](CCCCC)C(=O)N2CCC[C@H]2C(=O)N[C@@H](C(C)C)C(=O)N[C@@H](CC(=O)O)C(=O)N[C@H](C(=O)N[C@@H](CO)C(=O)N[C@@H](CCCN)C(=O)N[C@@H](CCC(N)=O)C(=O)O)CSCC(=O)N[C@@H](Cc2ccc3ccccc3c2)C(=O)N[C@@H](Cc2ccc(O)cc2)C(=O)N[C@@H](CC(=O)O)C1=O` [Example 1160] ({CH2CO}-[2Nal]YD[NHexGly]YVGRL[Ahp(2)]PVDCS[Orn]Q-OH; thioether N-14), the IC50 is 37.1 nM. In the case of `CCCCCCN1CC(=O)N[C@@H](Cc2ccc(O)cc2)C(=O)N[C@@H](C(C)C)C(=O)NCC(=O)N[C@@H](CCCNC(=N)N)C(=O)N[C@@H](CC(C)C)C(=O)N[C@@H](CCCCC)C(=O)N2CCC[C@H]2C(=O)N[C@@H](C(C)C)C(=O)N[C@@H](CC(=O)O)C(=O)N[C@H](C(=O)N[C@@H](CO)C(=O)N[C@@H](CN)C(=O)N[C@@H](CC(N)=O)C(=O)O)CSCC(=O)N[C@@H](Cc2ccc3ccccc3c2)C(=O)N[C@@H](Cc2ccc(O)cc2)C(=O)N[C@@H](CC(=O)O)C1=O` [Example 1161] ({CH2CO}-[2Nal]YD[NHexGly]YVGRL[Ahp(2)]PVDCS[Dap]N-OH; thioether N-14) it was 22.7 nM. As to `CCCCCCN1CC(=O)N[C@@H](Cc2ccc(O)cc2)C(=O)N[C@@H](C(C)C)C(=O)NCC(=O)N[C@@H](CCCNC(=N)N)C(=O)N[C@@H](CC(C)C)C(=O)N[C@@H](CCCCC)C(=O)N2CCC[C@H]2C(=O)N[C@@H](C(C)C)C(=O)N[C@@H](CC(=O)O)C(=O)N[C@H](C(=O)N[C@@H](CO)C(=O)N[C@@H](CN)C(=O)N[C@@H](CCC(N)=O)C(=O)O)CSCC(=O)N[C@@H](Cc2ccc3ccccc3c2)C(=O)N[C@@H](Cc2ccc(O)cc2)C(=O)N[C@@H](CC(=O)O)C1=O` [Example 1162] ({CH2CO}-[2Nal]YD[NHexGly]YVGRL[Ahp(2)]PVDCS[Dap]Q-OH; thioether N-14), the IC50 worked out at 35.3 nM. With `CCCCCCN1CC(=O)N[C@@H](Cc2ccc(O)cc2)C(=O)N[C@@H](C(C)C)C(=O)NCC(=O)N[C@@H](CCCNC(=N)N)C(=O)N[C@@H](CC(C)C)C(=O)N[C@@H](CCCCC)C(=O)N2CCC[C@H]2C(=O)N[C@@H](C(C)C)C(=O)N[C@@H](CC(=O)O)C(=O)N[C@H](C(=O)N[C@@H](CO)C(=O)N[C@@H](CCCCN)C(=O)N[C@@H](CC(N)=O)C(=O)O)CSCC(=O)N[C@@H](Cc2ccc3ccccc3c2)C(=O)N[C@@H](Cc2ccc(O)cc2)C(=O)N[C@@H](CC(=O)O)C1=O` [Example 1163] ({CH2CO}-[2Nal]YD[NHexGly]YVGRL[Ahp(2)]PVDCSKN-OH; thioether N-14) the figure was 22.6 nM; with `CCCCCCN1CC(=O)N[C@@H](Cc2ccc(O)cc2)C(=O)N[C@@H](C(C)C)C(=O)NCC(=O)N[C@@H](CCCNC(=N)N)C(=O)N[C@@H](CC(C)C)C(=O)N[C@@H](CCCCC)C(=O)N2CCC[C@H]2C(=O)N[C@@H](C(C)C)C(=O)N[C@@H](CC(=O)O)C(=O)N[C@H](C(=O)N[C@@H](CO)C(=O)N[C@@H](CCN)C(=O)N[C@@H](CC(N)=O)C(=O)O)CSCC(=O)N[C@@H](Cc2ccc3ccccc3c2)C(=O)N[C@@H](Cc2ccc(O)cc2)C(=O)N[C@@H](CC(=O)O)C1=O` [Example 1164] ({CH2CO}-[2Nal]YD[NHexGly]YVGRL[Ahp(2)]PVDCS[Dab]N-OH; thioether N-14), 9.8 nM; with `CCCCCCN1CC(=O)N[C@@H](Cc2ccc(O)cc2)C(=O)N[C@@H](C(C)C)C(=O)NCC(=O)N[C@@H](CCCNC(=N)N)C(=O)N[C@@H](CC(C)C)C(=O)N[C@@H](CCCCC)C(=O)N2CCC[C@H]2C(=O)N[C@@H](C(C)C)C(=O)N[C@@H](CC(=O)O)C(=O)N[C@H](C(=O)N[C@@H](CO)C(=O)N[C@@H](CCCCN)C(=O)N[C@@H](CCC(N)=O)C(=O)O)CSCC(=O)N[C@@H](Cc2ccc3ccccc3c2)C(=O)N[C@@H](Cc2ccc(O)cc2)C(=O)N[C@@H](CC(=O)O)C1=O` [Example 1165] ({CH2CO}-[2Nal]YD[NHexGly]YVGRL[Ahp(2)]PVDCSKQ-OH; thioether N-14), 28.2 nM.
